According to patent publication EP1082963A1, “REMEDIES FOR JOINT DISEASES BOUND TO HYALURONIC ACID” (CHUGAI SEIYAKU KABUSHIKI KAISHA, priority 1998, dated 1999):

Biological target: gelatinase B (Homo sapiens, UniProt P14780)
Assay: Gelatinase B inhibiting activity of synovial fluid recovered after intraarticular administration
Assay type: in vivo, rats
Parameters: purchased Roche Diagnostics Co., Ltd
Settings: Fig. 7
Method: The following agents (1 to 3) were administered into right knee joints of 9-10 week old rats (n=4 to 10) and the animals were sacrificed at time intervals; the joint cavities were washed with a total 0.5 ml of a physiological saline to recover a synovial fluid. • Agent 1: 30 nmol of compound 1 • Agent 2: a mixture of 30 nmol of compound 1 and 0.3 mg of HA • Agent 3: 0.3 mg of "conjugate 4" (having compound 1 bound in an amount equivalent to 30 nmol)
By using a kit for measuring gelatinase activity manufactured by Roche Diagnostics, the inhibiting activity of the synovial fluid against gelatinase B was calculated according to the following formula. Gelatinase B Inhibition Activity (%) = [(Enzymatic Activity in the Absence of Synovial Fluid - Enzymatic Activity in the Presence of Added Synovial Fluid)/Enzymatic Activity in the Absence of Synovial Fluid] x 100 [formula]
The results were shown by a mean value ± standard deviation. The gelatinase B inhibiting activity of the synovial fluid from the group administered compound 1 alone and the group administered the mixture of compound 1 and HA decreased to 20% two hours after administration and to less than 5% 17 hours after administration while in the group administered "conjugate 4" about 50% of the gelatinase B inhibiting activity remained 17 hours after administration.

Sequence of gelatinase B (P14780 94-707, species assumed): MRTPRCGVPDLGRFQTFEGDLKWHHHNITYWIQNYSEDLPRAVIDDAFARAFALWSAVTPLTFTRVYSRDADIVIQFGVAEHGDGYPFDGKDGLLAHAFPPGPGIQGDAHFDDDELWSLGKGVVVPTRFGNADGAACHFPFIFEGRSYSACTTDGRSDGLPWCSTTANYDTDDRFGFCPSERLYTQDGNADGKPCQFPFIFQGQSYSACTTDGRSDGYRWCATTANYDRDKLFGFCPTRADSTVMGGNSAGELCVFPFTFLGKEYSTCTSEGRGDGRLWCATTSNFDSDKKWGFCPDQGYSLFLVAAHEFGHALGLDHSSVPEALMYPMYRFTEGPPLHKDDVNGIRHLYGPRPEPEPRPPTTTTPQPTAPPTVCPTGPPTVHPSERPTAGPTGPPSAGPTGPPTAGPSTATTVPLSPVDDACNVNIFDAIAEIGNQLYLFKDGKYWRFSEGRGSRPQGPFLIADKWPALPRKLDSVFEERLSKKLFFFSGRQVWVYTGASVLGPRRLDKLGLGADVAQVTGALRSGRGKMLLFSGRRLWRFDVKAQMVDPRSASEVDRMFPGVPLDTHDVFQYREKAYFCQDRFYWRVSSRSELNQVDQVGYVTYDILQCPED

CNC(=O)[C@H](Cc1c[nH]c2ccccc12)NC(=O)C(CC(=O)NO)CC(C)C (stereo partly drawn) [compound 1, N-[2-isobutyl-3-(N'-hydroxycarbonylamido)propanoyl]-L-tryptophan methylamide]
gelatinase B inhibiting activity of the synovial fluid (17 hours after administration into rat right knee joint): less than 5%
gelatinase B inhibiting activity of the synovial fluid (two hours after administration into rat right knee joint): 20%
